Assay type in all cases: binding
What all share (conditions): read-out: Ka (M^-1) (converted)

Experiment [1] deals with T1, C-phycocyanin (C-PC) (Limnospira platensis, UniProt P72508+P72509). The experiment in a line: fluorescence quenching titration (PCB emission, excitation […] nm); also near-UV CD, thermal shift of nearly […] °C. The arrangement: gene cpcA; native C-PC purified from Spirulina biomass, (αβ)3 trimer / (αβ)6 hexamer; with C-phycocyanin beta subunit (cpcB).
Target sequence in this assay (P72509 whole entry): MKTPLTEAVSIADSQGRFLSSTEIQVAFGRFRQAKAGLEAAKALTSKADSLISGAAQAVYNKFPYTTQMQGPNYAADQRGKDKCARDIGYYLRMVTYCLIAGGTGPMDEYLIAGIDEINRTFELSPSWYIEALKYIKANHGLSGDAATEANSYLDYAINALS
Target sequence in this assay (P72508 whole entry): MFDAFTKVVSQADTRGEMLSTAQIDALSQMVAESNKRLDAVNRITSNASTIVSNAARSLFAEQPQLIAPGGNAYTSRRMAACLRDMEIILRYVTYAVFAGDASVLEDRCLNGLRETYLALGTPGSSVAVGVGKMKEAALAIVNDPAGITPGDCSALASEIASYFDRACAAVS
For experiment [2], the target named is T1, C-phycocyanin (C-PC). Nature of the experiment: fluorescence quenching titration (PCB emission, excitation […] nm); also UV-VIS, near-UV CD, thermal shift of nearly […] °C. Details: gene cpcB; native C-PC purified from Spirulina biomass, (αβ)3 trimer / (αβ)6 hexamer; with C-phycocyanin alpha subunit (cpcA).
Target sequence in this assay (P72508 whole entry): as above
Target sequence in this assay (P72509 whole entry): as the sequence (P72509 whole entry) above
For experiment [3], the target named is T1, C-phycocyanin (C-PC). The experiment in a line: fluorescence quenching titration (PCB emission, excitation […] nm); also UV-VIS and near-UV CD; no change in Tm. Details: gene cpcB; native C-PC purified from Spirulina biomass, (αβ)3 trimer / (αβ)6 hexamer; with C-phycocyanin alpha subunit (cpcA).
Target sequence in this assay (P72508 whole entry): as the sequence (P72508 whole entry) above
Target sequence in this assay (P72509 whole entry): as the sequence (P72509 whole entry) above

Molecules are shown by their SMILES.

For `COC1=C(OC)C(=O)C(C/C=C(\C)CC/C=C(\C)CC/C=C(\C)CC/C=C(\C)CC/C=C(\C)CC/C=C(\C)CC/C=C(\C)CC/C=C(\C)CC/C=C(\C)CCC=C(C)C)=C(C)C1=O` [coenzyme Q10], the Kd at C-phycocyanin (C-PC) [1] is 2.94 µM.

For the compound `O=c1c(O)c(-c2ccc(O)c(O)c2)oc2cc(O)cc(O)c12` [quercetin], on C-phycocyanin (C-PC) [2], the Kd is 2.7 µM.

For the compound `Oc1ccc(/C=C/c2cc(O)cc(O)c2)cc1` [resveratrol], the Kd on C-phycocyanin (C-PC) [3] was 4.55 µM.

The values are drawn from article PMC10779248, “Investigation of the Potential of Selected Food-Derived Antioxidants to Bind and Stabilise the Bioactive Blue Protein C-Phycocyanin from Cyanobacteria Spirulina” (International Journal of Molecular Sciences, 2023).
